Results published in patent US11236089B2, “Substituted pyrrolopyridines as ATR inhibitors” (BlueValley Pharmaceutical LLC, priority 2017, dated 2022).

Key:
[1] = Mice PK study; type: in vivo; details: CD-1 mouse; oral dosing po, 10 mg/kg; plasma
Method: The pharmacokinetics of compounds were evaluated in CD-1 mouse via Intravenous and Oral Administration. The IV dose was administered as a slow bolus in the Jugular vein, and oral doses were administered by gavage. The formulation for IV dosing was 5% DMSO in 20% HPBCD in water, and the PO formulation was 2.5% DMSO, 10% EtOH, 20% Cremphor EL, 67.5% D5W. The PK time point for the IV arm was 5, 15, 30 min, 1, 2, 4, 6, 8, 12, 24 hours post dose, and for PO arm was 15, 30 min, 1, 2, 4, 6, 8, 12, 24 hours post dose. Approximately 0.03 mL blood was collected at each time point. Blood of each sample was transferred into plastic micro centrifuge tubes containing EDTA-K2 and collect plasma within 15 min by centrifugation at 4000 g for 5 minutes in a 4° C. centrifuge. Plasma samples were stored in polypropylene tubes. The samples were stored in a freezer at −75±15° C. prior to analysis. Concentrations of compounds in the plasma samples were analyzed using a LC-MS/MS method. WinNonlin (Phoenix™, version 6.1) or other similar software was used for pharmacokinetic calculations. The following pharmacokinetic parameters were calculated, whenever possible from the plasma concentration versus time data: IV administration: C0, CL, Vd, T1/2, AUCinf, AUClast, MRT, Number of Points for Regression; PO administration: Cmax, Tmax, T1/2, AUCinf, AUClast, F %, Number of Points for Regression. […]

[2] = system: ATM-Deficient Colorectal Cancer LoVo Cell Lines; test: In vitro anti-proliferation assay (ATPlite luminescence); type: cell-based; details: Homo sapiens; LoVo cells; about 72 hours; 5% FBS
Method: Cell antiproliferation was assayed by PerkinElmer ATPlite™ Luminescence Assay System. Briefly, the various test cancer cell lines were plated at a density of about 1×10^4 cells per well in Costar 96-well plates, and were incubated with different concentrations of compounds for about 72 hours in medium supplemented with 5% FBS. One lyophilized substrate solution vial was then reconstituted by adding 5 mL of substrate buffer solution, and was agitated gently until the solution was homogeneous. About 50 μL of mammalian cell lysis solution was added to 100 μL of cell suspension per well of a microplate, and the plate was shaken for about five minutes in an orbital shaker at ˜700 rpm. This procedure was used to lyse the cells and to stabilize the ATP. Next, 50 μL substrate solution was added to the wells and microplate was shaken for five minutes in an orbital shaker at ˜700 rpm. Finally, the luminescence was measured by a PerkinElmer TopCount® Microplate Scintillation Counter. Such assays, carried out with a range of doses of test compounds, allowed the determination of the cellular anti-antiproliferative IC50 of the compounds of the present invention. The following table lists the IC50 values of several cancer cell lines (5% FBS) for certain compounds of the invention.

[3] = target: ATR (Homo sapiens (Human), UniProt Q13535); test: Enzyme ATR in vitro enzyme assay (ELISA, phospho-Ser15 p53 substrate); type: biochemical; details: ATR immunoprecipitated from HeLa nuclear extract; GST-p53N66 substrate; ATP 3 μM; 37° C.
Method: ATR for use in the in vitro enzyme assay was obtained from HeLa nuclear extract (CIL Biotech, Mons, Belgium) by immunoprecipitation with rabbit polyclonal antiserum raised to amino acids 400-480 of ATR (Tibbetts R S et al, 1999, Genes Dev. 13:152-157) contained in the following buffer (25 mM HEPES (pH7.4), 2 mM MgCl2, 250 mM NaCl, 0.5 mM EDTA, 0.1 mM Na3V04, 10% v/v glycerol, and 0.01% v/v Tween 20). ATR-antibody complexes were isolated from nuclear extract by incubating with protein A-Sepharose beads (Sigma, #P3476) for 1 hour and then through centrifugation to recover the beads. In the well of a 96-well plate, […] Sepharose beads were incubated with 1 μg of substrate glutathione S-transferase-p53N66 (NH2-terminal 66 amino acids of p53 fused to glutathione ^-transferase was expressed in E. coli) in ATR assay buffer (50 mM HEPES (pH 7.4), 150 mM NaCl, 6 mM MgCl2, 4 mM MnCl2, 0.1 mM Na3V04, 0.1 mM DTT, and 10% (v/v) glycerol) at 37° C. in the presence or absence of inhibitor. After 10 minutes with gentle shaking, ATP was added to a final concentration of 3 μM and the reaction continued at 37° C. for an additional 1 hour. The reaction was stopped by addition of IOOμí PBS and the reaction was transferred to a white opaque glutathione coated 96-well plate (NUNC #436033) and incubated overnight at 4° C. This plate was then washed with PBS/0.05%>(v/v) Tween 20, blotted dry, and analyzed by a standard ELISA (Enzyme-Linked Immunosorbent Assay) technique with a phospho-serine 15 p53 (16G78) antibody (Cell Signaling Technology, #9286). The detection of phosphorylated glutathione S-transferase-pSSNee substrate was performed in combination with a goat anti-mouse horseradish peroxidase-conjugated secondary antibody (Pierce, #31430). Enhanced chemiluminescence solution (NEN, Boston, Mass.) was used to produce a signal and chemiluminescent detection was carried out via a TopCount (Packard, Meriden, Conn.) plate reader.

ATR, sequence (Q13535 whole entry, the tested form may be a part): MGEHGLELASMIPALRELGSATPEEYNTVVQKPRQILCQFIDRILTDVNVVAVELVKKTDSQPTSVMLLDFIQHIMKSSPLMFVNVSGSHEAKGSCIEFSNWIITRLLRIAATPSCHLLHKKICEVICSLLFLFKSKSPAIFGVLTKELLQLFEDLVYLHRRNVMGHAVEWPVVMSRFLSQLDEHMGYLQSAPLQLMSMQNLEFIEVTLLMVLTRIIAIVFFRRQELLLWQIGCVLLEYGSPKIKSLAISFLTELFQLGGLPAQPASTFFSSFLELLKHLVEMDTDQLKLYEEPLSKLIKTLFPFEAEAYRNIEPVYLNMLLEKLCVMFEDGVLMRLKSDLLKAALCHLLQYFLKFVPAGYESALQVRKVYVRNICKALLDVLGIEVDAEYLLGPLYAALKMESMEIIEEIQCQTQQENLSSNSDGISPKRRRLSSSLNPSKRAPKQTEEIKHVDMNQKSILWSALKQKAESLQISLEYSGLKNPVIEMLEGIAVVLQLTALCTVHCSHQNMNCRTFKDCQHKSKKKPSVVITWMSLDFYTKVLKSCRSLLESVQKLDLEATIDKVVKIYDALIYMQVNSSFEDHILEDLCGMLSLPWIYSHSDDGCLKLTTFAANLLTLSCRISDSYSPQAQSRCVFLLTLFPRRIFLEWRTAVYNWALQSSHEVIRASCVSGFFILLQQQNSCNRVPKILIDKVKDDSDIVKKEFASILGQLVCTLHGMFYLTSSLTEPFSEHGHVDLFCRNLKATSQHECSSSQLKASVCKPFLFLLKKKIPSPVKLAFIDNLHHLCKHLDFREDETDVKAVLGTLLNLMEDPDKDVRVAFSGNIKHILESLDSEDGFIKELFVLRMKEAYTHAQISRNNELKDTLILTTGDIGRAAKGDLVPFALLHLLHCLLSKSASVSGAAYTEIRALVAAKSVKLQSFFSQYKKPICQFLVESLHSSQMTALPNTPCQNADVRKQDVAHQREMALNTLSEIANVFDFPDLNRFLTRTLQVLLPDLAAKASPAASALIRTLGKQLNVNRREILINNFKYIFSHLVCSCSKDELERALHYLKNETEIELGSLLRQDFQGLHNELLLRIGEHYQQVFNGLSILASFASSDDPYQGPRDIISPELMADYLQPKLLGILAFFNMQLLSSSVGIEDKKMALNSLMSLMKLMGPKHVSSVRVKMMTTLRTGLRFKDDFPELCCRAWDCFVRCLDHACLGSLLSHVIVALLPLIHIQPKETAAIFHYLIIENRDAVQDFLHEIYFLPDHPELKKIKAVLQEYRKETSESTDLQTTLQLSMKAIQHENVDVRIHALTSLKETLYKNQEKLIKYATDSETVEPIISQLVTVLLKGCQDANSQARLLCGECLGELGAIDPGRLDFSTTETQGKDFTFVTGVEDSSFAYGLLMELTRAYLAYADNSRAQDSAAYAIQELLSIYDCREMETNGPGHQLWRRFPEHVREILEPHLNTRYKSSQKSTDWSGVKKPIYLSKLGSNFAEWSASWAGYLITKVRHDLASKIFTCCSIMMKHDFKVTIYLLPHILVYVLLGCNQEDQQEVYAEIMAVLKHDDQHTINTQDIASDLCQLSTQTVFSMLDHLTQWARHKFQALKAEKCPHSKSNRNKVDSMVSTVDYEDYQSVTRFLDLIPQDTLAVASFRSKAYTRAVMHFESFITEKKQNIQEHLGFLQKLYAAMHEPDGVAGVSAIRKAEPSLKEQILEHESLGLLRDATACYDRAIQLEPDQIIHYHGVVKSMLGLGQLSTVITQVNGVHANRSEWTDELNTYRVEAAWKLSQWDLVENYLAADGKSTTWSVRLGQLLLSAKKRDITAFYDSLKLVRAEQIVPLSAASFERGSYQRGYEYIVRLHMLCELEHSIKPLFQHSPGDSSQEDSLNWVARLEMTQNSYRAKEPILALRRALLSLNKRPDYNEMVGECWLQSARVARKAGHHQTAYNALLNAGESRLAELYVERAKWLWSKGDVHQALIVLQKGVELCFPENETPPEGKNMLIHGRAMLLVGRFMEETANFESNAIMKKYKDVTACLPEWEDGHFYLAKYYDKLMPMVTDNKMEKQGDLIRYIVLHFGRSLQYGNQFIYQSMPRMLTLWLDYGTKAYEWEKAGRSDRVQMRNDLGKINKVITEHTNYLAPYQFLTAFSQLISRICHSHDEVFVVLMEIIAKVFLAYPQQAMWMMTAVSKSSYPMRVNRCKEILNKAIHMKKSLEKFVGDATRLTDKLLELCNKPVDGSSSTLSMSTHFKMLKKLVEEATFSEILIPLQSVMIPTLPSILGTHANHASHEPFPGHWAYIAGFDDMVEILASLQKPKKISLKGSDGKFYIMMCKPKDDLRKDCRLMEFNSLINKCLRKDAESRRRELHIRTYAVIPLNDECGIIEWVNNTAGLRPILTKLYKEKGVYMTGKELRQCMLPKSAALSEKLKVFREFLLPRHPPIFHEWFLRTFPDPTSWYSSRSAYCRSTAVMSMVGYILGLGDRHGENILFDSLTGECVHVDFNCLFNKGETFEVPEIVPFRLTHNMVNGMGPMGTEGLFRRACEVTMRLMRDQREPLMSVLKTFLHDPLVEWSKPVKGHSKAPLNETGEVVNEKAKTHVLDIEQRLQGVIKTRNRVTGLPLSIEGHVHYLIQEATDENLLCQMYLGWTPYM
ATR, sequence (Q8WXE1 whole entry partner, the tested form may be a part): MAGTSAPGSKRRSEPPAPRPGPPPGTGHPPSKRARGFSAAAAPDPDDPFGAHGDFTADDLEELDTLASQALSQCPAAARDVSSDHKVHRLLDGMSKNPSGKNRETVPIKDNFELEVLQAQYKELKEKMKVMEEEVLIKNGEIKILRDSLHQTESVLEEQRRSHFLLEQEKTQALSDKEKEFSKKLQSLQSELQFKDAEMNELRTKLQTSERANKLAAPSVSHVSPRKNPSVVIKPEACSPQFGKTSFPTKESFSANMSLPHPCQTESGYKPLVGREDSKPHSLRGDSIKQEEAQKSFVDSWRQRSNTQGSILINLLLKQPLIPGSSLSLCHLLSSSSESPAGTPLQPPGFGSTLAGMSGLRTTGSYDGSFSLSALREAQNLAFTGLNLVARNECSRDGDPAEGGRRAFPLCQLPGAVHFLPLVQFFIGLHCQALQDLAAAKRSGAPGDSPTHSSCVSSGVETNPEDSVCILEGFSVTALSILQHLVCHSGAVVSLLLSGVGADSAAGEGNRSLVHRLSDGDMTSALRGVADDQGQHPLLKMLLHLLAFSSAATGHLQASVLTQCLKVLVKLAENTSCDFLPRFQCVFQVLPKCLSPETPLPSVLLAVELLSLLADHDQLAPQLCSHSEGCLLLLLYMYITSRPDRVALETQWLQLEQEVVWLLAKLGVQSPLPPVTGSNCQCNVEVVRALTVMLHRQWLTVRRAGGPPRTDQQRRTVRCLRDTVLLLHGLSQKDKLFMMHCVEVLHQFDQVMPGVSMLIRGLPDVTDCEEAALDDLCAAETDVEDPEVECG

Compound: C[C@@H]1COCCN1c1cc(C2([S@](C)(=N)=O)CC2)nc(-c2cc[nH]c3nccc2-3)n1 [AZD-6738, reference compound]
- AUC(0-t) [1]: 3100 ng·h/mL
- IC50 [2]: 800 nM

Compound: CN=S(C)(=O)C1(c2cc(N3CCOC[C@H]3C)nc(-c3ccnc4[nH]ccc34)n2)CC1 (stereo partly drawn) [CY-200-1, Methyl[methyl(1-[6-[(3R)-3-methylmorpholin-4-yl]-2-[1H-pyrrolo[2,3-b]pyridin-4-yl]pyrimidin-4-yl]cyclopropyl)oxo-lambda-sulfanylidene]amine]
- IC50 [3]: < 3 nM

Compound: [2H]C([2H])([2H])N=S(C)(=O)C1(c2cc(N3CCOC[C@H]3C)nc(-c3ccnc4[nH]ccc34)n2)CC1 (stereo partly drawn) [CY-209, (2H3)methyl[methyl(1-[6-[(3R)-3-methylmorpholin-4-yl]-2-[1H-pyrrolo[2,3-b]pyridin-4-yl]pyrimidin-4-yl]cyclopropyl)oxo-lambda6-sulfanylidene]amine]
- IC50 [3]: < 3 nM

Compound: C[C@@H]1COCCN1c1cc(C(C)(C)O)nc(-c2ccnc3[nH]ccc23)n1 [CY-212, 2-[6-[(3R)-3-methylmorpholin-4-yl]-2-[1H-pyrrolo[2,3-b]pyridin-4-yl]pyrimidin-4-yl]propan-2-ol]
- IC50 [3]: < 3 nM

Compound: C[C@@H]1COCCN1c1cc(C(C)(C)C#N)nc(-c2ccnc3[nH]ccc23)n1 [CY-237, 2-methyl-2-[6-[(3R)-3-methylmorpholin-4-yl]-2-[1H-pyrrolo[2,3-b]pyridin-4-yl]pyrimidin-4-yl]propanenitrile]
- AUC(0-t) [1]: 4390 ng·h/mL
- IC50 [3]: < 3 nM
- IC50 [2]: 480 nM

Compound: C[C@@H]1COCCN1c1cc(NCC2CC(F)(F)C2)nc(-c2ccnc3[nH]ccc23)n1 [CY-249, N-[(3,3-difluorocyclobutyl)methyl]-6-[(3R)-3-methylmorpholin-4-yl]-2-[1H-pyrrolo[2,3-b]pyridin-4-yl]pyrimidin-4-amine]
- IC50 [3]: < 3 nM
- IC50 [2]: 510 nM

Compound: C[C@@H]1COCCN1c1cc(C(C)(O)C(F)(F)F)nc(-c2ccnc3[nH]ccc23)n1 (stereo partly drawn) [CY-257, 1,1,1-trifluoro-2-[6-[(3R)-3-methylmorpholin-4-yl]-2-[1H-pyrrolo[2,3-b]pyridin-4-yl]pyrimidin-4-yl]propan-2-ol]
- IC50 [3]: < 3 nM
- IC50 [2]: 830 nM
